Laboratory results reported in patent publication US4786755A, “Diphenic acid monoamides” (Warner-Lambert Company, priority 1986, dated 1988).

Tests used:
[1] = target: T1, human leukocyte 5-lipoxygenase (Homo sapiens, UniProt P09917); experiment: 5-Lipoxygenase Inhibitor in Human Leukocytes (5LOA1); type: cell-based; conditions: 100 μM exogenous arachidonic acid; read-out: IC50 5LOA (100)*
T1 construct: endogenous in cells; host or cells: leukocytes from fresh blood of normal adult men
T1 sequence (P09917 1-674): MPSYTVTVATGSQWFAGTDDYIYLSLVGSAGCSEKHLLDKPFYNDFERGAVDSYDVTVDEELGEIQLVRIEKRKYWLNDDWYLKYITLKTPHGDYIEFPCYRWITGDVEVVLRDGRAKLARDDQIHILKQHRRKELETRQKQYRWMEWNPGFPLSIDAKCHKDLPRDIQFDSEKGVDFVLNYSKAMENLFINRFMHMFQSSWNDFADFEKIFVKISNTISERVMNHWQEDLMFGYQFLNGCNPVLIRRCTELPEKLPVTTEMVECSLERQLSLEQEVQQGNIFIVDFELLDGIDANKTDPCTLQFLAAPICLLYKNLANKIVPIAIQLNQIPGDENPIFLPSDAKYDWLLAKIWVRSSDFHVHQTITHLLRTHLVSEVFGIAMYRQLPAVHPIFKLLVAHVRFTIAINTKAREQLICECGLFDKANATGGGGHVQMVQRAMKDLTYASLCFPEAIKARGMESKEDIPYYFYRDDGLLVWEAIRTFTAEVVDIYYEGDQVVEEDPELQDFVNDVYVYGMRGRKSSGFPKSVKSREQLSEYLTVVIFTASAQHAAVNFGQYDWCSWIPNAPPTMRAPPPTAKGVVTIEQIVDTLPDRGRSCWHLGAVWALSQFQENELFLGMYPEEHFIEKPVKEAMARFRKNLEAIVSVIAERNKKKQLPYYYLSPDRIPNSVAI
Excerpt: To Evaluate the Effect of Each Compounds as a 5-Lipoxygenase Inhibitor in Comparison to Standard Reference Agents in Human Leukocytes (5LOA1)
The purpose of this assay is to evaluate the activity of each compound as an inhibitor of human leukocyte 5-lipoxygenase.
Arachidonic acid and calcium ionophore A23187 are obtained from Sigma (St. Louis, MO). Silica gel plates, GF are obtained from Analtech (Newark, DE). Arachidonic acid, (1-^14 C) and 5-HETE (^3 H), 5 (S)-hydroxy-6-trans,8,11,14-cis eicosatetraenoic acid, are obtained from New England Nuclear (Boston, MA). Six percent Dextran-70 in 0.9% NaCl is obtained from Cutter Labs (Berkeley, CA).
Preparation of Leukocytes
Fresh blood from normal adult men who had not received any drugs for at least the previous five days is obtained by the Community Research Clinic (WL/PD) using venipuncture and collected into heparinized vacuotainer tubes. To every 100 ml of pooled blood is added 25 ml of dextran solution (6% dextran -70 in 0.9% sodium chloride containing 3% dextrose) and this is mixed gently in a plastic cylinder. The mixture is left to stand at room temperature for at least 90 minutes. The upper layer which is rich in leukocytes and platelets is then carefully decanted into 50 ml plastic tubes and centrifuged at about 100×g for eight minutes in an IEC centrifuge and rotor number 269 (about 600 rpm). The supernatant fluid is discarded and the pellet is resuspended in 10 ml of 0.87% ammonium chloride for exactly two minutes. This procedure is to lyse completely contaminating red blood cells. Leukocytes are then separated by centrifugation for ten minutes. The pellet is washed three times by suspension in 20 ml PBS (sodium chloride, 7.1 g; Na2 HPO4, 1.15 g; KH2 PO4, 0.2 g, and KCl, 0.2 g/L) and centrifuged as before. The final pellet is suspended in PBS containing 0.87 mM CaCl2. Viability of the cells is then checked using trypan blue exclusion method and is found to be over 90%.
5-Lipoxygenase Enzyme Assay
Cells in suspension (0.98 ml) are incubated with or without test compounds for five minutes at 37° C. in a shaking water bath. At this time a 17 μl mixture is prepared per 1 ml of cell suspension: 100 mM arachidonic acid, 1 μl, 0.05 μCi ^14 C-arachidonic acid in 5 μl; 1 mM calcium ionophore A23187, 10 μl (1). This mixture is added and the incubation continued for five minutes. The reaction is stopped by adding four volumes of absolute ethanol and the mixture is kept in ice for 30 minutes. The floculated precipitate is separated by centrifugation at about 37,000×g for 20 minutes (Beckman Instruments rotor number 40). The alcohol extract is taken to dryness under a stream of nitrogen and the residue is dissolved in 100-200 μl absolute ethanol. At the time any turbidity is removed by centrifugation. An aliquot (25-50 μl) is applied onto 20×20 cm silica gel TLC plate and developed using the following solvent system: diethyl ether, petroleum ether (20°-40° C.), acetic acid (50:50:1 v/v). Zones of 1 cm apart are scraped from the TLC plate and transferred to mini-vials. Methanol (0.5 ml) is added to dissolve the radioactivity adsorbed to the silica gel and scintillation fluid (H.P., Beckman), 5 ml is then added and vials are counted in a liquid scintillation counter. A sample of ^3 H-5-HETE is applied and used for the identification of the formed 5-HETE.
Total radioactivity in the test as well as the control samples are normalized and the amount of 5-HETE present is calculated accordingly.
IC50 values are defined as the concentrations of test agents which caused a 50% inhibition of the formation of 5-HETE as compared to control and are determined by inspection of the concentration-response curves.

[2] = system: Isolated Guinea Pig Lung Parenchyma; experiment: Smooth Muscle Receptor Agonism-Antagonism Activity Evaluations In Vitro (IVAS), LTC4-induced contraction; type: cell-based; conditions: Cavia porcellus, LTC4-induced contraction
Excerpt: Smooth Muscle Receptor Agonism-Antagonism Activity Evaluations In Vitro (IVAS) Isolated Guinea Pig Lung Parenchyma
The potency of a test compound for receptor stimulation or antagonism, for example, can easily be determined since the concentration of the compound to which the muscle cell, or specialized responsive area on this cell, is exposed can be easily controlled and correlated with the recorded activity of muscle contraction or relaxation.
The procedures described herein are specifically concerned with the definition of a test drug action on isolated lung strips. Drug action is characterized either by an action per se on the tissues or by interaction with known smooth muscle receptor stimulants or antagonists.
Usually, the tests will be used to evaluate the ability of a test compound to antagonize the contraction induced by standard agonists in this case LTC4. A relative potency is derived by comparison with one of the standard blocking drugs. In caution, relative potencies of test compounds to known standards are valid only if full dose response curves are generated and the compound compared generate parallel dose/response curves with common maxima. Appropriate "within-trial" comparisons are also necessary.
Molecular antagonists compete with the agonist for the receptor. […] A physiological antagonist produces a response by action on a different receptor that causes an effect in opposition to the agonism.
A permanent isolated bath system is used which facilitates the vertical suspension of a segment of tissue in a small volume of a specific nutritive buffer. Frittered glass terminals provide dispersed bubbles of 95% oxygen and 5% carbon dioxide at the base of the individual tissue baths and the buffer reservoir. All baths and the reservoir are double-jacketed and water at 37° C. is circulated through the jacket of the baths to provide stable temperature regulation. The baths are arranged so that fresh solution from the reservoir passes through a jacketed glass coil to the base of the bath. The bubbling gas stirs the bath solution. During equilibration, fresh solution enters and excess solution is allowed to overflow. Unless a particular drug is required throughout the experiment and it is incorporated in the buffer, individual drugs are introduced directly into the bath by long hypodermic needles to the base of the bath without disturbing the tissue. Drugs are removed by rapidly draining the tissue bath from the bottom and refilling. Tissues are washed a minimum of six times. The emptying and refilling sequence takes only five seconds.
The contraction and relaxation of the smooth muscle preparation can be recorded either isotonically (change in length) or isometrically (change in tension). Isometric transducers are more sensitive and proportional. Isometric contractions are recorded electronically using Grass FT 0.03C force displacement transducers and Beckman Dynagraph recorders. The tissue is suspended vertically with one end of the segment anchored to the bottom of the bath and the other end attached to the mechanical electrical transducer muscle level. The electrical output of this transducer moves a pen on a moving chart in proportion to the force displacement.
Lung tissue is obtained from normal male guinea pigs. The heart and lungs are removed as a unit, placed in buffer, and the lungs are perfused with buffer by the spontaneously beating heart for several minutes.

With `O=C(O)c1ccccc1-c1ccccc1C(=O)Nc1ccc(CCCc2ccc(Cl)c(Cl)c2)cc1` [Example 1, [1,1'-Biphenyl]-2-carboxylic acid, 2'-[[[4-[3-(3,4-dichlorophenyl)propyl]phenyl]amino]carbonyl]-] as the compound, how does the IC50 [1] read?
Its IC50 is 9.6 µM.

What about the inhibition at 3 µM ([2]; @ 3 μM) of the same compound?
The inhibition at 3 µM was 90%.

Which IC50 [1] does the source give for `O=C(O)c1ccccc1-c1ccccc1C(=O)Nc1ccc(CCc2ccc(Cl)c(Cl)c2)cc1` [Example 3, [1,1'-Biphenyl]-2-carboxylic acid, 2'-[[[4-[2-(3,4-dichlorophenyl)ethyl]phenyl]amino]carbonyl]-] here?
Its IC50 is 4.6 µM.

And the IC50 [2]?
Its IC50 is 1 µM.

`O=C(O)c1ccccc1-c1ccccc1C(=O)Nc1cccc(CCc2ccc(Cl)c(Cl)c2)c1` [Example 4, [1,1'-Biphenyl]-2-carboxylic acid, 2'-[[[3-[2-(3,4-dichlorophenyl)ethyl]phenyl]amino]carbonyl]-] was tested. Which IC50 [1] did it give?
The IC50 was 9.3 µM.

For `CN(C(=O)c1ccccc1-c1ccccc1C(=O)O)c1ccc(CCc2ccc(Cl)c(Cl)c2)cc1` [Example 5, [1,1'-Biphenyl]-2-carboxylic acid, 2'-[[[4-[2-(3,4-dichlorophenyl)ethyl]phenyl]methylamino]carbonyl]-], which IC50 [1] is on record?
Its IC50 is 40 µM.

How did the IC50 [1] turn out when `COc1ccc(CCc2ccc(NC(=O)c3ccccc3-c3ccccc3C(=O)O)cc2)cc1OC` [Example 7, [1,1'-Biphenyl]-2-carboxylic acid, 2'-[[[4-[2-(3,4-dimethoxyphenyl)ethyl]phenyl]amino]carbonyl]-] was run?
Its IC50 is greater than 20 µM.

With `CN(C(=O)c1ccccc1-c1ccccc1C(=O)O)c1ccc(CCc2ccc(Cl)cc2)cc1` [Example 8] as the compound, how does the IC50 [1] read?
The IC50 was greater than 20 µM.

Which IC50 [1] does the source give for `O=C(O)c1ccccc1-c1ccccc1C(=O)Nc1ccc(CCc2ccc(Cl)cc2)cc1` [Example 11, [1,1'-Biphenyl]-2-carboxylic acid, 2'-[[4-[2-[(4-chlorophenyl)ethyl]phenyl]amino]carbonyl]-] here?
The IC50 was 12 µM.
